Assays:
GlgA [1] = target: T1, GlgA (Mycobacterium tuberculosis, UniProt P9WMZ1); format: biochemical
T1 construct: gene glgM

GlgP = GlgP (Mycobacterium tuberculosis, UniProt P9WMW1); format: biochemical
GlgA [2] = target: T1, GlgA; test: biochemical
GlgA [3] = target: T1, GlgA; format: biochemical; remark: listed apart in the source

Nc1ncnc2c1ncn2[C@@H]1O[C@H](COP(=O)(O)OP(=O)(O)O)[C@@H](O)[C@H]1O [ADP]
MS of reaction products; coupled assay of ADP release (GlgA [1]): The next most abundant ion is consistent with the presence of the co-product, ADP

O=P(O)(O)O[C@H]1O[C@H](CO)[C@@H](O)[C@H](O)[C@H]1O [G1P, glucose 1-phosphate]
1H NMR of glycogen phosphorolysis by recombinant enzyme (GlgP): recombinant M. tuberculosis GlgP was only capable of forming G1P from glycogen and inorganic phosphate
Ki (GlgA [2]): 895 ± 60 µM

O=P(O)(O)O[C@H]1O[C@H](CO)[C@@H](O[C@H]2O[C@H](CO)[C@@H](O)[C@H](O)[C@H]2O)[C@H](O)[C@H]1O [M1P, α-maltose 1-phosphate]
1H NMR and high resolution MS of the enzyme reaction product (GlgA [3]): Recombinant M. tuberculosis GlgA converts ADP-glucose and G1P to M1P.
